In patent publication US9622479B2, “Boron complexes with gradual 1-methylcyclopropene releasing capability” (The United States of America, as represented by the …, priority 2014, dated 2017):

How the values were obtained:
[1] = GC head space analysis of 1-MCP release from boron complexes mixed with water; assay type: physicochemical; details: for amount of 1-MCP released in first 24 hours (releasing curves): FIGS. 4 & 7; for release of 1-MCP with time (MCP releasing curve): complex mixed vigorously with H2O in air-tight vial, head space vapor injected in GC; for consistency in releasing 1-MCP over time: FIGS. 4-7, compared with complex 2
Experimental: Investigation of releasing 1-MCP from the boron complexes of MCP (1, 2, 3,4): Without being bound by theory, due to the moisture sensitivity of the boron complexes, the nucleophilic attack of hydroxide ion (OH—) toward the boron atom triggered the breaking of the B-C bond releasing 1-MCP as a gas.
(§1) GC analysis of dicyclohexyl-(2-methylene-cyclopropyl)-borane (1): 140 mg of the complex was mixed vigorously with 0.6 mL of H2O in a 1.5 mL air-tight vial. The vapor collected (8 μl) from the head space of the solution was injected in a GC with an MXTR-1 column. The data were compared with a reference standard of 1-MCP.
as §1, with “dihexyl-(2-methylene-cyclopropyl)-borane (2): 291” for “dicyclohexyl-(2-methylene-cyclopropyl)-borane (1): 140”, “1.0” for “0.6”, “3” for “1.5”, “(100 μL)” for “(8 μl)”
as §1, with “tris-(2-methylene-cyclopropyl)-borane (3): 94” for “dicyclohexyl-(2-methylene-cyclopropyl)-borane (1): 140”, “0.4” for “0.6”, “μL)” for “μl)”
GC analysis of diphenyl-(2-methylene-cyclopropyl)-borane (4): 393 mg of the complex was mixed vigorously with 2.0 mL of H2O in a 3 mL air-tight vial. The vapor collected from the head space of the solution was injected in a Hewlett-Packard 5890 GC with capillary column (30 m×0.25 mm i.d.) coated with a 0.25 μm film of 5% phenyl methyl silicon and a flame ionization detector. The temperature of GC was programmed at 30° C. isothermal with an injection point temperature of 50° C. The detector was operated at 230° C. and sample was injected under split less condition. Helium was used as carrier gas with a 1.5 mL/min column flow.
However, during this analysis it was observed that some other compounds were also released. Those compounds formed due to the breakage of other B-C bonds were cyclohexane and cyclohexanol from complex 1 or hexane and hexanol from complex 2. Complex 3 also released some byproducts either by incomplete hydrolysis of the complex or Markovnikov addition of H2O.

[2] = 1-MCP concentration inside the jars by GC analysis after 24 hour treatment; assay type: physicochemical; details: 1-gal airtight jars, equivalent amount of complex, 2 mL water
Experimental: (§2) Boron complex 1 was tested on green tomatoes. Six 3.9 L air tight glass jars were taken for investigation containing five green tomatoes each. The tomatoes in three jars were treated with 1-MCP released from the reaction between Boron complex 1 and water in a 14 mL vial with continuous stirring, which was placed inside the jars. The other jars were kept in identical condition without placing any boron complex inside. The treatment was carried out for 24 hours. The concentration level of 1-MCP was determined (9 to 13 μLL^-1) after 24 hours of reaction by GC analysis using 2-methyl-1-propene as a standard. After 24 hours treatment all the tomatoes were kept in open environment and monitored for their color changes.
(§3) For the comparative studies between DCMB (1) and DPMB (4), experiment was performed with three 1-gal airtight jars containing eight tomatoes each which were collected from the same source but different time. One jar was used as blank containing no complex and the other two jars Were treated with equivalent amount of DCMB (1) (393 mg) and DPMB (4) (376.5 mg) complex respectively arid water (2 mL), The concentration of released 1-MCP inside the jars was calculated by GC analysis after 24 hour treatment The treated and untreated tomatoes were subjected to quality analysis under identical conditions.

tomatoes = test: Comparative quality analysis of tomatoes treated with DCMB (1) and DPMB (4); assay type: in vivo; details: for darkness (L*) of tomatoes during storage / redness (a*/b*) of tomatoes during storage: 7 days storage at 22±2° C.; for darkness (L*) of tomatoes during storage: FIG. 14; for redness (a*/b*) of tomatoes during storage: FIG. 15; for average firmness of tomatoes: day 7, storage at 22±2° C., FIG. 16
Experimental: as §3
Quality Analysis: Noninoculated tomatoes were treated with Boron complex 1 as described before and kept in open air for 9 days. Quality analysis (color and firmness) was performed at 22±2° C. Color was measured with a Hunter UltraScan® VIS colorimeter (Hunter Associates Lab, Reston, Va.) and firmness was evaluated with a TA-XT2i Texture Analyzer (Texture Technologies Corp., Scarsdale, N.Y.). Four measurements were taken for each tomato for color and firmness. The color of the tomatoes was measured seven times during the investigation period and firmness was determined at the end of 9th day.
Similar results were found in a*/b* value (FIG. 15). […] The firmness data of the treated tomatoes was compared to that of non-treated tomatoes at Day 7 (NT-7D, Exp 2) and also at Day 0 (NT-OD, Exp 2), which were collected from the same batch. […] However, a significant difference was observed between the non-treated tomatoes at day 7 (2.68 kg) and non-treated fruits at day 0.

green tomatoes = test: Green tomatoes treated with 1-MCP released from Boron complex 1 and water; color and firmness quality analysis; assay type: in vivo
Experimental: as §2, with “changes. Quality Analysis: Noninoculated tomatoes were treated with Boron complex 1 as described before and kept in open air for 9 days. Quality analysis (color and firmness) was performed at 22±2° C. Color was measured with a Hunter UltraScan® VIS colorimeter (Hunter Associates Lab, Reston, Va.) and firmness was evaluated with a TA-XT2i Texture Analyzer (Texture Technologies Corp., Scarsdale, N.Y.). Four measurements were taken for each tomato for color and firmness. The color of the tomatoes was measured seven times during the investigation period and firmness was determined at the end of 9th day.” for “changes.”

C=C1CC1B(c1ccccc1)c1ccccc1 (centres unmarked) [complex 4, diphenyl-(2-methylene-cyclopropyl)-borane]
amount of 1-MCP released in first 24 hours (releasing curves) [1]: relatively low in first 24 hours | release of 1-MCP with time (MCP releasing curve) [1]: released gradually with time | concentration of 1-MCP [2]: 1 μLL-1 | darkness (L*) of tomatoes during storage (tomatoes): remained in the middle | redness (a*/b*) of tomatoes during storage (tomatoes): slower increase than the non-treated tomatoes | average firmness of tomatoes (tomatoes): 3.10 kg

C=C1CC1B(C1CCCCC1)C1CCCCC1 (centres unmarked) [complex 1, dicyclohexyl-(2-methylene-cyclopropyl)-borane]
amount of 1-MCP released in first 24 hours (releasing curves) [1]: near to its highest point in first 24 hours | consistency in releasing 1-MCP over time [1]: more consistent in releasing 1-MCP over time | area ratio of released 1-MCP over cyclohexane vs. temperature ([1]; GC experiment at different temperatures, FIG. 8): increased at lower temperature | release of 1-MCP with time (MCP releasing curve) [1]: released gradually with time | concentration of 1-MCP [2]: 5 μLL-1 | tomato color at the end of nine days (green tomatoes; 24 hours treatment, then open environment, all untreated turned red): half of the treated tomatoes were still green | tomato color after 4 days (green tomatoes; 24 hours treatment, then open environment, untreated turned yellow): remained green | darkness (L*) of tomatoes during storage (green tomatoes; 9 days storage at 22±2° C., FIG. 10): did not significantly change | redness (a*/b*) of tomatoes during storage (green tomatoes; 9 days storage at 22±2° C., FIG. 11): increased slowly but not in significant value | firmness of tomatoes (green tomatoes; end of 9th day, storage at 22±2° C., FIG. 12): 1.42 (±0.35) kg | foreign spots on the surface of the treated tomatoes (green tomatoes; in vivo): No foreign spots were observed | darkness (L*) of tomatoes during storage (tomatoes): did not significantly change | redness (a*/b*) of tomatoes during storage (tomatoes): did not change significantly or increased very slowly | average firmness of tomatoes (tomatoes): 4.20 kg

C=C1CC1B(C1CC1=C)C1CC1=C (centres unmarked) [complex 3, tris-(2-methylene-cyclopropyl)-borane]
consistency in releasing 1-MCP over time [1]: more consistent in releasing 1-MCP over time | release of 1-MCP with time (MCP releasing curve) [1]: released gradually with time

C=C1CC1B(CCCCCC)CCCCCC (centres unmarked) [complex 2, dihexyl-(2-methylene-cyclopropyl)-borane]
release of 1-MCP with time (MCP releasing curve) [1]: released gradually with time
